Consider five compounds from ChEMBL document CHEMBL5705888, “Substrate specificity and inhibitors of LRRK2, a protein kinase mutated in Parkinson's disease” (Biochem J, 2009).

Structures are written as SMILES.

Experiment [1] addresses AMP-activated protein kinase, AMPK (Homo sapiens) (UniProt P54646+O43741+P54619+Q9UGJ0+Q9Y478+Q13131+Q9UGI9). Kind of experiment: Inhibition of AMPK (unknown origin) at 10 uM incubated for 30 mins in presence of [gamma-33P]ATP by multidrop micro reagent based assay relative to control. In kind it is protein-complex assay.
The target in experiment [2] is T1, Mitogen-activated protein kinase kinase kinase kinase 2 (Homo sapiens) (UniProt Q12851).
T1 sequence (whole entry): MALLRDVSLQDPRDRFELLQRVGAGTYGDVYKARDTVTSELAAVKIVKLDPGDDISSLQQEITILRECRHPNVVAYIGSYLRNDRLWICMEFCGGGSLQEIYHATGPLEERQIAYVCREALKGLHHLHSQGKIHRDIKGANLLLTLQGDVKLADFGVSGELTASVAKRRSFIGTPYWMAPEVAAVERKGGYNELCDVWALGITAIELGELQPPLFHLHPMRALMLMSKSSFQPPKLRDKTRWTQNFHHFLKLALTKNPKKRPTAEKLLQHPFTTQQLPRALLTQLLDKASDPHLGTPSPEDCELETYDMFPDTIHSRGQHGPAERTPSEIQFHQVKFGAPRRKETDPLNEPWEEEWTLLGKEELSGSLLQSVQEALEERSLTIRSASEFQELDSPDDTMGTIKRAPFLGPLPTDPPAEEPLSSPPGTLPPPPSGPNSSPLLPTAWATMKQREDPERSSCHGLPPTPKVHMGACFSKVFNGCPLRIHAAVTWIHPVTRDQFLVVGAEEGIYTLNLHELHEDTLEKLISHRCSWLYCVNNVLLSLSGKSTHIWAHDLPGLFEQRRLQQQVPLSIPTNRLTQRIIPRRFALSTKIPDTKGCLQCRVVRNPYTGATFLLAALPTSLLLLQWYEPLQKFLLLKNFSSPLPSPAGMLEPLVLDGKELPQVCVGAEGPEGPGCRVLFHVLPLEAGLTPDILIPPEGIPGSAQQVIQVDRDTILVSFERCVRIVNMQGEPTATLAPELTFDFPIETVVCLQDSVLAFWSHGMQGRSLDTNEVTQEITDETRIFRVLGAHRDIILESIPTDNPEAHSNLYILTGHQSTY
Kind of experiment: Inhibition of GCK (unknown origin) at 10 uM incubated for 30 mins in presence of [gamma-33P]ATP by multidrop micro reagent based assay relative to control; values are per cent of control.

Experiment [3] concerns the target Receptor tyrosine-protein kinase erbB-4 (Homo sapiens) (UniProt Q15303). Kind of experiment: Inhibition of HER4 (unknown origin) at 10 uM incubated for 30 mins in presence of [gamma-33P]ATP by multidrop micro reagent based assay relative to control; values are per cent of control.
For experiment [4], the target named is Myosin light chain kinase, smooth muscle (Homo sapiens) (UniProt Q15746). Kind of experiment: Inhibition of SmMLCK (unknown origin) at 10 uM incubated for 30 mins in presence of [gamma-33P]ATP by multidrop micro reagent based assay relative to control; values are per cent of control.
Myosin light chain kinase, smooth muscle (Homo sapiens), sequence (Q15746 whole entry): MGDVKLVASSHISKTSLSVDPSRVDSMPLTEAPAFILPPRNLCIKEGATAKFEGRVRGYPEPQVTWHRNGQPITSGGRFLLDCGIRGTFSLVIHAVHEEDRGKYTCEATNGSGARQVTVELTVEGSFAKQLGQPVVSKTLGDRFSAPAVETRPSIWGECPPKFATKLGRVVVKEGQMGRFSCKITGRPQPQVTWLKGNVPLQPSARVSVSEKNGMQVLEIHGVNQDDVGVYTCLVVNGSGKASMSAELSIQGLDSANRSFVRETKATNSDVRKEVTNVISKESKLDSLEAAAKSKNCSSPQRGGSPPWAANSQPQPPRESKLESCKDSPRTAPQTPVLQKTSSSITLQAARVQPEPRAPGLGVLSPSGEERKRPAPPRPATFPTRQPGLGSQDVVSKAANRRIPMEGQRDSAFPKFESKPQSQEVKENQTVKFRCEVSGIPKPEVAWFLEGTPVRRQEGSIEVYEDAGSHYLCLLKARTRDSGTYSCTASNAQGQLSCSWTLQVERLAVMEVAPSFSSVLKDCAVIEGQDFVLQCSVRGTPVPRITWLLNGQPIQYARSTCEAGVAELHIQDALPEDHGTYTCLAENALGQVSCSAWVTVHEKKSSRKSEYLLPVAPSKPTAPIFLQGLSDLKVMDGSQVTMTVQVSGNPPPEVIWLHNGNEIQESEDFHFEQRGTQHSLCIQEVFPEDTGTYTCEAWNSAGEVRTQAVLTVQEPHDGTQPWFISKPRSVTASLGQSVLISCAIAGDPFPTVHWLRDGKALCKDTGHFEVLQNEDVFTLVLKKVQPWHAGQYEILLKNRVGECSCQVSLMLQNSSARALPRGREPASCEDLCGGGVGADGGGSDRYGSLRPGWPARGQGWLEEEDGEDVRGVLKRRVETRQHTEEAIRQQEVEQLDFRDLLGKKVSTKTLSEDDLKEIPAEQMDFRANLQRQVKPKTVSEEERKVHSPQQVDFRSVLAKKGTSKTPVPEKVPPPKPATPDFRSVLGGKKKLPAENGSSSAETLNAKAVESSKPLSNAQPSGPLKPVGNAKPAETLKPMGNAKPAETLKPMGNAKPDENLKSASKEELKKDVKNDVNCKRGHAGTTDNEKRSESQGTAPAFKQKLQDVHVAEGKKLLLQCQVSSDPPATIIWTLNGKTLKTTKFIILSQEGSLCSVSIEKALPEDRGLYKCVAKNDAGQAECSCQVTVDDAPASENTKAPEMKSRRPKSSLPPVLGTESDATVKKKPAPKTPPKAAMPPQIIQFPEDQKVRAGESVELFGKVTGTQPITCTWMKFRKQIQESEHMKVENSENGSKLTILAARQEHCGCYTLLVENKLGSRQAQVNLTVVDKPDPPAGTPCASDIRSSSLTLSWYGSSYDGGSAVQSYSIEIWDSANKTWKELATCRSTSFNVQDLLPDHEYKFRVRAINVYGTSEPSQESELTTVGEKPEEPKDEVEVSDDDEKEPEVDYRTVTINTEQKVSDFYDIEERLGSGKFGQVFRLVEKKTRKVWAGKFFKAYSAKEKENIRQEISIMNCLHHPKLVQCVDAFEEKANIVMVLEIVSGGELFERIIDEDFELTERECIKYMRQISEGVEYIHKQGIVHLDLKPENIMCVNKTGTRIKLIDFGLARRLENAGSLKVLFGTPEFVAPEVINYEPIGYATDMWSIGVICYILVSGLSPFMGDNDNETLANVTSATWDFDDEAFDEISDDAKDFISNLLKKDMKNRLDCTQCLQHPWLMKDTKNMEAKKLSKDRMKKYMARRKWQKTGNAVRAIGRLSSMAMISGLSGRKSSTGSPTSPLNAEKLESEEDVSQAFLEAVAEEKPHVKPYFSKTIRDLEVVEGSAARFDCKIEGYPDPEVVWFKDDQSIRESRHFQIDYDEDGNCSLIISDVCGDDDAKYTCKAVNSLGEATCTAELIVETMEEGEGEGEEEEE
In experiment [5] the target is Serine/threonine-protein kinase PAK 4 (Homo sapiens) (UniProt O96013). Kind of experiment: Inhibition of PAK4 (unknown origin) at 1 uM incubated for 30 mins in presence of [gamma-33P]ATP by multidrop micro reagent based assay relative to control.
Serine/threonine-protein kinase PAK 4 (Homo sapiens), sequence (O96013 whole entry, looked up): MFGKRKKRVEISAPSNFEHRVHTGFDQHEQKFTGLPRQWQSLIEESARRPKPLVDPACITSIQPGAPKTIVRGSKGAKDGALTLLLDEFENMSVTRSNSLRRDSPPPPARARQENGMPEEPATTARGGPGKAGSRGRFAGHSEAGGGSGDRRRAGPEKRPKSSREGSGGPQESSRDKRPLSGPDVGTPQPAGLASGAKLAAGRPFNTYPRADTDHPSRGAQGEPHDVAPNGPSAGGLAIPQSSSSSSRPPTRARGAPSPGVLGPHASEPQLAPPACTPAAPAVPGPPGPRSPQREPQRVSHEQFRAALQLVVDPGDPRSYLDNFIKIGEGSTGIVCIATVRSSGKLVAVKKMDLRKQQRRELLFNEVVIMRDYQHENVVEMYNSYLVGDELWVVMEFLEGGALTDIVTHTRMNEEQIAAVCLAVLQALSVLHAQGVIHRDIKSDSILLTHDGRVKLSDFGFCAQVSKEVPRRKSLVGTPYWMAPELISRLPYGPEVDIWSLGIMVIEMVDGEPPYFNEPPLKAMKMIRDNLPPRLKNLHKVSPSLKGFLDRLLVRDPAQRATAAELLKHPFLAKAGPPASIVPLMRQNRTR
For experiment [6], the target named is T2, Serine/threonine-protein kinase BRSK2 (Homo sapiens) (UniProt Q8IWQ3).
T2 sequence (whole entry): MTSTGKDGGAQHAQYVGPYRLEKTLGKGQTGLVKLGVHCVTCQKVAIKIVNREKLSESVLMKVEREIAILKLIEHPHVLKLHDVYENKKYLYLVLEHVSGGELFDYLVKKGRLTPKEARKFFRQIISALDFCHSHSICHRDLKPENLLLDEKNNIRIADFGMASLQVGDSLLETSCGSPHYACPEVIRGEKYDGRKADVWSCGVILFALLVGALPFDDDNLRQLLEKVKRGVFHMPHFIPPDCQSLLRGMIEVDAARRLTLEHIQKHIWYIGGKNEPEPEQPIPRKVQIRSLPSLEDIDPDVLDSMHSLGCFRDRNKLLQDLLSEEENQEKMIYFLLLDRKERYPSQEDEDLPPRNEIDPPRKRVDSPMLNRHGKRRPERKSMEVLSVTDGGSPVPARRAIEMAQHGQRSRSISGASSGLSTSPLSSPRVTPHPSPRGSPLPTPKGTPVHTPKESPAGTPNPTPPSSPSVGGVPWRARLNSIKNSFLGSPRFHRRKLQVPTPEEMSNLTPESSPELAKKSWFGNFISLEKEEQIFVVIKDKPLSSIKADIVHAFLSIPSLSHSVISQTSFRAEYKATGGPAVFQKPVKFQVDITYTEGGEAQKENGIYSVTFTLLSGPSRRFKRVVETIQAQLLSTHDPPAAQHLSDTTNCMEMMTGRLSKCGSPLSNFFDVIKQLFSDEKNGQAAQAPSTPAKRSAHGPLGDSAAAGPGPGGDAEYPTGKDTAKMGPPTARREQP
In words: Inhibition of BRSK2 (unknown origin) at 1 uM incubated for 30 mins in presence of [gamma-33P]ATP by multidrop micro reagent based assay relative to control; values are per cent of control.

Experiment [7] addresses Insulin receptor-related protein (Homo sapiens) (UniProt P14616). In words: Inhibition of IRR (unknown origin) at 1 uM incubated for 30 mins in presence of [gamma-33P]ATP by multidrop micro reagent based assay relative to control.

Receptor tyrosine-protein kinase erbB-4 (Homo sapiens), sequence (Q15303 whole entry): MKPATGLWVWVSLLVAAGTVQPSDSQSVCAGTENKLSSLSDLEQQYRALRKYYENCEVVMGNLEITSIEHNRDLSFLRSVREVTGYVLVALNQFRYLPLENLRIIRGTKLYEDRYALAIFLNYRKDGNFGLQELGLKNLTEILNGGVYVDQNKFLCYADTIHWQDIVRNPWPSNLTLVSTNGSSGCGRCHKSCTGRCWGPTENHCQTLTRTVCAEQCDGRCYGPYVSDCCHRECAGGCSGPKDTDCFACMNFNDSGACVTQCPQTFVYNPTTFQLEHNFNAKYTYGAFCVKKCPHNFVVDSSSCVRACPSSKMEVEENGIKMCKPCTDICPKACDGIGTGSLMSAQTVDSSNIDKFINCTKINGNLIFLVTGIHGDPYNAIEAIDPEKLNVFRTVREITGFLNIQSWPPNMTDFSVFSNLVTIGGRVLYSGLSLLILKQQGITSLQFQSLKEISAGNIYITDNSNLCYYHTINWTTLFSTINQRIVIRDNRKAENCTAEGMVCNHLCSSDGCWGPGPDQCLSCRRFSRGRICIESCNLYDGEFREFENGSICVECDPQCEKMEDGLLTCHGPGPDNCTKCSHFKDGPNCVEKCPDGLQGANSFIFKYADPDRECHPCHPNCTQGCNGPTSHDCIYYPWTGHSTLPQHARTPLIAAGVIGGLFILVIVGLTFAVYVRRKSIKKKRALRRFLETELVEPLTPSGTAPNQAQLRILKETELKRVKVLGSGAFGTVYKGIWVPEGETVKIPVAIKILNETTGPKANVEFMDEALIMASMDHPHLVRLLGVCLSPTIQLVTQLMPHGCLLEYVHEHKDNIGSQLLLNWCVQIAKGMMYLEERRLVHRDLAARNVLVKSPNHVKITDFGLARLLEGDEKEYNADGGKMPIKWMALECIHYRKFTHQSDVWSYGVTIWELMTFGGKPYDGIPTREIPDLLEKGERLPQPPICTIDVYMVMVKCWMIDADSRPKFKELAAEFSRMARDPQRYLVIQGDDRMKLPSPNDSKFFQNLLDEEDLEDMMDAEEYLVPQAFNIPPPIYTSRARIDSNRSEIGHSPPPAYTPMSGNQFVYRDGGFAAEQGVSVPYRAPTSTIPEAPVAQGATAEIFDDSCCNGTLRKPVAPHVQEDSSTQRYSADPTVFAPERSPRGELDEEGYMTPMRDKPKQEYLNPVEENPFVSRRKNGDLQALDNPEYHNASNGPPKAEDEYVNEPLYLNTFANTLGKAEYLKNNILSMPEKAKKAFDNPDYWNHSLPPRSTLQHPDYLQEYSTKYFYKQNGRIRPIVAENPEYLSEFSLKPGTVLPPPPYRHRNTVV
Insulin receptor-related protein (Homo sapiens), sequence (P14616 27-742 limits assumed): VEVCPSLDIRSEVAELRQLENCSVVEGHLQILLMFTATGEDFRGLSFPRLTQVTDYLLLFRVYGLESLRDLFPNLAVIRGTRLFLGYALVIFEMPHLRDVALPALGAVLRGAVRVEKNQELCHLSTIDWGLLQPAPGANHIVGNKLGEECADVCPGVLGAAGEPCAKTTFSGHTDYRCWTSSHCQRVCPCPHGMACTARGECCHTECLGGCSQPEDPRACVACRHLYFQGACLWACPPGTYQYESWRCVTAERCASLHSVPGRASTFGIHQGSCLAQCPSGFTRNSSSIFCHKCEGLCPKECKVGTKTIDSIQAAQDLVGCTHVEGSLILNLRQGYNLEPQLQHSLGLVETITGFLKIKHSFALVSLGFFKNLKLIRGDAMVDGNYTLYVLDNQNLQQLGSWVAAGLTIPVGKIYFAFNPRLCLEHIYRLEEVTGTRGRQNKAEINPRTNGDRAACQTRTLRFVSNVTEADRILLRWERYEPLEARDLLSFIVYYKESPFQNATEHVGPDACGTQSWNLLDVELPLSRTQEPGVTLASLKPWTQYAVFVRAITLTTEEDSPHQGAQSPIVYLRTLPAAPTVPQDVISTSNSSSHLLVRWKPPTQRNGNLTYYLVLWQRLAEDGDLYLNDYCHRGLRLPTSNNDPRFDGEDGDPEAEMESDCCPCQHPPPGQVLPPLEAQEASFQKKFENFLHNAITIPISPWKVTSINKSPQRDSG
Insulin receptor-related protein (Homo sapiens), sequence (P14616 747-1297 limits assumed): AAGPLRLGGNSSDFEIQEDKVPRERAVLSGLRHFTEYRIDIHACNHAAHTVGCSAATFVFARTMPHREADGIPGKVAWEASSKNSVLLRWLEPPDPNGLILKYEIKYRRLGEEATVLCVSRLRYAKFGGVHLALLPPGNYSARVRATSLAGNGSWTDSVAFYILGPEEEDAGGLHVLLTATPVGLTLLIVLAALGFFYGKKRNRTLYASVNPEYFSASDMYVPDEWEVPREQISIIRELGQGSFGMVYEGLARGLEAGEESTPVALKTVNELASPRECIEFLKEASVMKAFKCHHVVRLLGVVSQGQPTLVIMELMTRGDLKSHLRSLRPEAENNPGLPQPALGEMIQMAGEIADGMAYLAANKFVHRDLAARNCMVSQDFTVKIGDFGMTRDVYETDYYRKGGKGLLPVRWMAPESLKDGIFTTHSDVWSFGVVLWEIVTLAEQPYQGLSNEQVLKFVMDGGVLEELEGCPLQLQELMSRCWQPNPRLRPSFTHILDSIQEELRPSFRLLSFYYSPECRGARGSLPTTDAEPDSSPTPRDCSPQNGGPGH

On to `C[C@@H](N)[C@H]1CC[C@H](C(=O)Nc2ccncc2)CC1`, for which the inhibition in experiment [1] came out at 77%. Also, the residual activity in experiment [2] was found to be 89%; in experiment [3] it was 69%; in experiment [4], 70%.
With `Cc1cncc2cccc(S(=O)(=O)N3CCCNC[C@@H]3C)c12`, the results for the residual activity in experiment [5] and in experiment [6] were 99% and 17%, respectively.
As for `CCn1c(-c2nonc2N)nc2cnc(Oc3cccc(NC(=O)c4ccc(OCCN5CCOCC5)cc4)c3)cc21` [GSK-269962A], in experiment [7], the inhibition was 61%.
Turning to `O=S(=O)(c1cccc2cnccc12)N1CCCNCC1` [FASUDIL], the inhibition in experiment [1] is 60%. The residual activity in experiment [2] was 55%; in experiment [3] it was 129%; in experiment [4], 66%.
As to `CC1=C(C(=O)Nc2cc3cn[nH]c3cc2F)C(c2ccc(C(F)(F)F)cc2)CC(=O)N1` (centres undefined), the residual activity was found to be 95% in experiment [5] and 91% in experiment [6]. Also, the inhibition in experiment [7] was 106%.
